Results reported in BindingDB's records for patent US12473263 (Icahn School Of Medicine At Mount Sinai, 2025).
pKd: −log10 of the molar value.

Biological target: T1, Bromodomain-containing protein 4 [58-164] (Homo sapiens, UniProt O60885)
T1 construct: 58-164
Experiment: Fluorescence Anisotropy Binding Assay
Method: Binding affinity of the newly synthesized compounds to the BRD4 BrD1 was assessed in a fluorescence anisotropy assay using a fluorescein isothiocyanate (FITC)-labeled MS417 as an assay probe (Zhang et al. 2008 op.cit.). Competition binding was performed with a BrD protein (0.25 to 1 μM) and the fluorescent probe (80 nM), and increasing concentration of unlabeled competing ligand in a PBS buffer (pH 7.4) in total volume of 80 μL. Measurements were obtained after 1 hour incubation of the fluorescent ligand and the protein at 25° C. with Safire 2 microplate reader (Tecan). In the assay, fluorescent ligand concentration was ≤2Kd, and protein concentration was set at which 50-80% of fluorescent ligand is bound. Dissociation constant of a competing ligand was calculated with the correction to Cheng-Prussoff equation introduced by Nicolovska-Coleska and colleagues [Nikolovska-Coleska, Z. et al., Anal Biochem 332, 261-273 (2004).

Structure (SMILES) | pKd
N=c1n(Cc2cn(Cc3ccc(F)cc3)nn2)c2ccccc2n1CC(O)c1ccc(Cl)c(Cl)c1 (stereo unspecified) [US12473263, Example 12] | 5.41
N=c1n(Cc2cn(Cc3ccccc3F)nn2)c2ccccc2n1CC(O)c1ccc(Cl)c(Cl)c1 (stereo unspecified) [US12473263, Example 10] | 6.43
Cc1ccccc1Cc1cn(C[C@H](O)c2ccc(Cl)c(Cl)c2)c2ccccc12 [US12473263, Example 4] | 6.19
N=c1n(Cc2cn(Cc3cccc(F)c3)nn2)c2ccccc2n1CC(O)c1ccc(Cl)c(Cl)c1 (stereo unspecified) [US12473263, Example 11] | 6.26
N=c1n(Cc2cn(-c3ccccc3)nn2)c2ccccc2n1CC(O)c1ccc(Cl)c(Cl)c1 (stereo unspecified) [US12473263, Example 13] | 7.19
Cc1ccccc1Cn1cc(Cn2c(=N)n(CC(O)c3ccc(Cl)c(Cl)c3)c3ccccc32)nn1 (stereo unspecified) [US12473263, Example 7] | 6.26
Cc1ccccc1Cn1c(=N)n(CC(O)c2ccc(Cl)c(Cl)c2)c2ccc(F)cc21 (stereo unspecified) [US12473263, Example 2] | 6.57
Cc1ccccc1Cn1c(=N)n(CC(O)c2ccc(Cl)c(Cl)c2)c2ccc(Cl)cc21 (stereo unspecified) [US12473263, Example 3] | 6.30
N=c1n(Cc2cn(CCc3ccccc3)nn2)c2ccccc2n1CC(O)c1ccc(Cl)c(Cl)c1 (stereo unspecified) [US12473263, Example 15] | 6.45
COc1ccc2c(c1)n(Cc1ccccc1C)c(=N)n2CC(O)c1ccc(Cl)c(Cl)c1 (stereo unspecified) [US12473263, Example 1] | 6.16
Cc1cccc(Cn2cc(Cn3c(=N)n(CC(O)c4ccc(Cl)c(Cl)c4)c4ccccc43)nn2)c1 (stereo unspecified) [US12473263, Example 8] | 6.25
